Assay results as given in patent US7279286B2, “High-throughput-assay with high sensitivity for measuring of the activity of β-adrenergic receptor kinase and for determining the impact of test substances on such activity” (Sanofi-Aventis Deutschland GmbH, priority 2003, dated 2007).

Assays:
βARK [1] = target: T1, βARK (Homo sapiens, UniProt P25098, A211R/K465R/R422H); assay: βARK inhibition AlphaScreen assay (phosphorylation of biotinylated CCR5 peptide); type: biochemical; details: assay validation, read-out: apparent Km (ATP dependence)
T1 sequence (P25098 1-689 A211R/R422H/K465R): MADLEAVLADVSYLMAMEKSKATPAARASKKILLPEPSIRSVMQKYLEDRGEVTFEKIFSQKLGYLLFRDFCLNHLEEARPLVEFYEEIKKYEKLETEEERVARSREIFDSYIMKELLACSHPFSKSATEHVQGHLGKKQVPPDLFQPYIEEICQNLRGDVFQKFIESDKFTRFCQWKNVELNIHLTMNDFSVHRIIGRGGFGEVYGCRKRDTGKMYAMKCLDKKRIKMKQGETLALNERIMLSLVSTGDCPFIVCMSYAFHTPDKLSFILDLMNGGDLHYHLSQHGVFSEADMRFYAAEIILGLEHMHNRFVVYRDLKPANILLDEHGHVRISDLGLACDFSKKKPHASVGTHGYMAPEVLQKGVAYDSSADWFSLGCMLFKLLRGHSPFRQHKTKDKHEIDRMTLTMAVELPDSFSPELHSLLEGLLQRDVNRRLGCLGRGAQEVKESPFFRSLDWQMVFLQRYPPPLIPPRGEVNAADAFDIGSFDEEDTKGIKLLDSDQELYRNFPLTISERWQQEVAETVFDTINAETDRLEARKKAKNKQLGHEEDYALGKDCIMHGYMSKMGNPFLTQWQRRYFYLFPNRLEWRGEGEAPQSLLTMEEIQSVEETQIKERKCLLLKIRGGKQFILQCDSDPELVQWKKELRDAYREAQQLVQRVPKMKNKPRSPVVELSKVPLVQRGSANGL
Text: (§1) In the βARK inhibition experiment biotinylated hunian CC ehemokine receptor 5, herein abbreviated CCR5 peptide (Seq. ID No. 1) is phosphorylated by the kinase. The phosphorylated serine is recognized by a specific antibody which, in turn, is bound to protein A coupled acceptor beads. The biotinylated N-terminus of the CCR5 peptide is coupled to streptavidin-coated donor heads. Thus, in the absence of inhibitors an AlphaScreen signal is detected that decreases when the enzymatic activity in inhibited. […]
(§2) Percent-inhibition values are calculated as: […]

βARK [2] = target: T2, βARK (Homo sapiens, UniProt P25098); assay: as above; type: biochemical; details: 0.5 μM βARK, 100 nM CCR5 peptide, 10 μM ATP, 120 min room temperature, read-out: IC50 (dose-response curve)
T2 sequence (P25098 1-689 A211R/R422H/K465R): T1 sequence (P25098 1-689 A211R/R422H/K465R)
Text: as §1, §2

Compound	Km (βARK [1]) [µM]	IC50 (βARK [2]) [nM]
Nc1ncnc2c1ncn2[C@@H]1O[C@H](COP(=O)(O)OP(=O)(O)OP(=O)(O)O)[C@@H](O)[C@H]1O [ATP]	4	
heparin		50
